Assay results reported in patent publication US9993494B2, “Compositions and methods for treating fibrotic disease” (eFFECTOR Therapeutics, Inc., priority 2014, dated 2018).

Tested on: normal human lung fibroblasts
Test: Ribosomal profiling: translational efficiency in TGFβ-treated fibroblasts
Type: cell-based
Settings: TGFβ-treated fibroblasts
Method in brief: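 Genome-wide RPF and total RNA libraries (ARTseq, RNA-Seq) were made from lysates of cycloheximide-treated, PBS-washed cells. After trimming and human-genome mapping, per-gene coding-region counts were compared between RPF and RNA for translational efficiency. Genes scoring low in either fraction were dropped.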

Cc1cc(C2CCCCC2)n(O)c(=O)c1.NCCO [CPX, ciclopirox oloamine]
renormalizing the translational profile of DNASE1L1 (ENSG00000013563): − (− = <0.9)
renormalizing the translational profile of KITLG (ENSG00000049130): − (− = <0.9)
renormalizing the translational profile of ADAMTS6 (ENSG00000049192): − (− = <0.9)
renormalizing the translational profile of LETMD1 (ENSG00000050426): − (− = <0.9)
renormalizing the translational profile of PLEKHA5 (ENSG00000052126): − (− = <0.9)
renormalizing the translational profile of EIF4B (ENSG00000063046): − (− = <0.9)
renormalizing the translational profile of RPL18 (ENSG00000063177): − (− = <0.9)
renormalizing the translational profile of HIPK2 (ENSG00000064393): − (− = <0.9)
renormalizing the translational profile of ASPM (ENSG00000066279): − (− = <0.9)
renormalizing the translational profile of RASSF1 (ENSG00000068028): − (− = <0.9)
renormalizing the translational profile of PABPC1 (ENSG00000070756): − (− = <0.9)
renormalizing the translational profile of RPL31 (ENSG00000071082): − (− = <0.9)
renormalizing the translational profile of PLD1 (ENSG00000075651): − (− = <0.9)
renormalizing the translational profile of EDN1 (ENSG00000078401): − (− = <0.9)
renormalizing the translational profile of AURKA (ENSG00000087586): − (− = <0.9)
renormalizing the translational profile of EPB41L1 (ENSG00000088367): − (− = <0.9)
renormalizing the translational profile of RPL6 (ENSG00000089009): − (− = <0.9)
renormalizing the translational profile of P2RX7 (ENSG00000089041): ++ (++ = 1.5 to 2.0)
renormalizing the translational profile of KDM2B (ENSG00000089094): − (− = <0.9)
renormalizing the translational profile of RPLP0 (ENSG00000089157): − (− = <0.9)
renormalizing the translational profile of IGBP1 (ENSG00000089289): − (− = <0.9)
renormalizing the translational profile of IRAK3 (ENSG00000090376): − (− = <0.9)
renormalizing the translational profile of PABPC4 (ENSG00000090621): − (− = <0.9)
renormalizing the translational profile of FMO2 (ENSG00000094963): − (− = <0.9)
renormalizing the translational profile of ACOT7 (ENSG00000097021): − (− = <0.9)
renormalizing the translational profile of ATP5D (ENSG00000099624): − (− = <0.9)
renormalizing the translational profile of LGALS1 (ENSG00000100097): − (− = <0.9)
renormalizing the translational profile of EIF3L (ENSG00000100129): − (− = <0.9)
renormalizing the translational profile of RPL3 (ENSG00000100316): − (− = <0.9)
renormalizing the translational profile of CEP192 (ENSG00000101639): − (− = <0.9)
renormalizing the translational profile of AMMECR1 (ENSG00000101935): − (− = <0.9)
renormalizing the translational profile of PLP2 (ENSG00000102007): − (− = <0.9)
renormalizing the translational profile of EIF3E (ENSG00000104408): − (− = <0.9)
renormalizing the translational profile of EEF1D (ENSG00000104529): − (− = <0.9)
renormalizing the translational profile of C19orf53 (ENSG00000104979): − (− = <0.9)
renormalizing the translational profile of GLTSCR2 (ENSG00000105373): + (+ = 0.9 to 1.5)
renormalizing the translational profile of RAB3D (ENSG00000105514): − (− = <0.9)
renormalizing the translational profile of RPL18A (ENSG00000105640): − (− = <0.9)
renormalizing the translational profile of COMP (ENSG00000105664): − (− = <0.9)
renormalizing the translational profile of GLCCI1 (ENSG00000106415): − (− = <0.9)
renormalizing the translational profile of CORO2A (ENSG00000106789): − (− = <0.9)
renormalizing the translational profile of GDF10 (ENSG00000107623): + (+ = 0.9 to 1.5)
renormalizing the translational profile of RPL28 (ENSG00000108107): − (− = <0.9)
renormalizing the translational profile of RPL19 (ENSG00000108298): − (− = <0.9)
renormalizing the translational profile of RASD1 (ENSG00000108551): − (− = <0.9)
renormalizing the translational profile of NAT9 (ENSG00000109065): − (− = <0.9)
renormalizing the translational profile of RPL34 (ENSG00000109475): − (− = <0.9)
renormalizing the translational profile of CRYAB (ENSG00000109846): − (− = <0.9)
renormalizing the translational profile of GAPDH (ENSG00000111640): − (− = <0.9)
renormalizing the translational profile of C12orf57 (ENSG00000111678): − (− = <0.9)
renormalizing the translational profile of HBEGF (ENSG00000113070): − (− = <0.9)
renormalizing the translational profile of RPL24 (ENSG00000114391): − (− = <0.9)
renormalizing the translational profile of EEF1B2 (ENSG00000114942): − (− = <0.9)
renormalizing the translational profile of IFIH1 (ENSG00000115267): − (− = <0.9)
renormalizing the translational profile of DPH5 (ENSG00000117543): − (− = <0.9)
renormalizing the translational profile of PPL (ENSG00000118898): − (− = <0.9)
renormalizing the translational profile of PLEKHG1 (ENSG00000120278): + (+ = 0.9 to 1.5)
renormalizing the translational profile of LIAS (ENSG00000121897): − (− = <0.9)
renormalizing the translational profile of GPSM2 (ENSG00000121957): − (− = <0.9)
renormalizing the translational profile of RPL21 (ENSG00000122026): − (− = <0.9)
renormalizing the translational profile of RPL5 (ENSG00000122406): − (− = <0.9)
renormalizing the translational profile of INHBA (ENSG00000122641): − (− = <0.9)
renormalizing the translational profile of CIT (ENSG00000122966): − (− = <0.9)
renormalizing the translational profile of RPL23 (ENSG00000125691): − (− = <0.9)
renormalizing the translational profile of LAMP5 (ENSG00000125869): + (+ = 0.9 to 1.5)
renormalizing the translational profile of NECAB3 (ENSG00000125967): − (− = <0.9)
renormalizing the translational profile of COX7C (ENSG00000127184): − (− = <0.9)
renormalizing the translational profile of LIF (ENSG00000128342): − (− = <0.9)
renormalizing the translational profile of MTUS1 (ENSG00000129422): − (− = <0.9)
renormalizing the translational profile of ARHGEF6 (ENSG00000129675): − (− = <0.9)
renormalizing the translational profile of RPL36 (ENSG00000130255): − (− = <0.9)
renormalizing the translational profile of GDF15 (ENSG00000130513): − (− = <0.9)
renormalizing the translational profile of ASS1 (ENSG00000130707): − (− = <0.9)
renormalizing the translational profile of EIF2S3 (ENSG00000130741): − (− = <0.9)
renormalizing the translational profile of RPL27 (ENSG00000131469): − (− = <0.9)
renormalizing the translational profile of MATN3 (ENSG00000132031): − (− = <0.9)
renormalizing the translational profile of PPARG (ENSG00000132170): − (− = <0.9)
renormalizing the translational profile of KDM6B (ENSG00000132510): − (− = <0.9)
renormalizing the translational profile of RARRES3 (ENSG00000133321): − (− = <0.9)
renormalizing the translational profile of BIVM (ENSG00000134897): + (+ = 0.9 to 1.5)
renormalizing the translational profile of ATP5G2 (ENSG00000135390): − (− = <0.9)
renormalizing the translational profile of KRT7 (ENSG00000135480): ++ (++ = 1.5 to 2.0)
renormalizing the translational profile of HNRNPA1 (ENSG00000135486): − (− = <0.9)
renormalizing the translational profile of IL6 (ENSG00000136244): − (− = <0.9)
renormalizing the translational profile of RPL35 (ENSG00000136942): − (− = <0.9)
renormalizing the translational profile of NOV (ENSG00000136999): − (− = <0.9)
renormalizing the translational profile of IER3 (ENSG00000137331): − (− = <0.9)
renormalizing the translational profile of DDX60 (ENSG00000137628): − (− = <0.9)
renormalizing the translational profile of RPLP1 (ENSG00000137818): − (− = <0.9)
renormalizing the translational profile of PAQR5 (ENSG00000137819): + (+ = 0.9 to 1.5)
renormalizing the translational profile of AOX1 (ENSG00000138356): − (− = <0.9)
renormalizing the translational profile of FGF5 (ENSG00000138675): − (− = <0.9)
renormalizing the translational profile of PDE5A (ENSG00000138735): − (− = <0.9)
renormalizing the translational profile of GAS2L3 (ENSG00000139354): − (− = <0.9)
renormalizing the translational profile of DIAPH3 (ENSG00000139734): − (− = <0.9)
renormalizing the translational profile of MYO19 (ENSG00000141140): − (− = <0.9)
renormalizing the translational profile of RPL13A (ENSG00000142541): − (− = <0.9)
renormalizing the translational profile of RPL11 (ENSG00000142676): − (− = <0.9)
renormalizing the translational profile of ACTA1 (ENSG00000143632): + (+ = 0.9 to 1.5)
renormalizing the translational profile of PLEKHA6 (ENSG00000143850): + (+ = 0.9 to 1.5)
renormalizing the translational profile of RPL32 (ENSG00000144713): − (− = <0.9)
renormalizing the translational profile of RPL37 (ENSG00000145592): − (− = <0.9)
renormalizing the translational profile of BTF3 (ENSG00000145741): − (− = <0.9)
renormalizing the translational profile of HIGD2A (ENSG00000146066): − (− = <0.9)
renormalizing the translational profile of CREB5 (ENSG00000146592): − (− = <0.9)
renormalizing the translational profile of DENND2A (ENSG00000146966): − (− = <0.9)
renormalizing the translational profile of RPL10 (ENSG00000147403): − (− = <0.9)
renormalizing the translational profile of EIF3H (ENSG00000147677): − (− = <0.9)
renormalizing the translational profile of RPL7A (ENSG00000148303): − (− = <0.9)
renormalizing the translational profile of EIF3M (ENSG00000149100): − (− = <0.9)
renormalizing the translational profile of FAU (ENSG00000149806): − (− = <0.9)
renormalizing the translational profile of CCDC102B (ENSG00000150636): − (− = <0.9)
renormalizing the translational profile of FRMD4A (ENSG00000151474): + (+ = 0.9 to 1.5)
renormalizing the translational profile of HOMER1 (ENSG00000152413): − (− = <0.9)
renormalizing the translational profile of PLEKHH2 (ENSG00000152527): − (− = <0.9)
renormalizing the translational profile of ANKH (ENSG00000154122): − (− = <0.9)
renormalizing the translational profile of ABCA6 (ENSG00000154262): − (− = <0.9)
renormalizing the translational profile of OBSCN (ENSG00000154358): + (+ = 0.9 to 1.5)
renormalizing the translational profile of ADAMTS5 (ENSG00000154736): + (+ = 0.9 to 1.5)
renormalizing the translational profile of OXA1L (ENSG00000155463): − (− = <0.9)
renormalizing the translational profile of C9orf85 (ENSG00000155621): − (− = <0.9)
renormalizing the translational profile of RPL30 (ENSG00000156482): − (− = <0.9)
renormalizing the translational profile of EEF1A1 (ENSG00000156508): − (− = <0.9)
renormalizing the translational profile of NRG1 (ENSG00000157168): − (− = <0.9)
renormalizing the translational profile of ADAMTS4 (ENSG00000158859): − (− = <0.9)
renormalizing the translational profile of RPL8 (ENSG00000161016): − (− = <0.9)
renormalizing the translational profile of RPL26 (ENSG00000161970): − (− = <0.9)
renormalizing the translational profile of RPL29 (ENSG00000162244): − (− = <0.9)
renormalizing the translational profile of CAMK2N1 (ENSG00000162545): − (− = <0.9)
renormalizing the translational profile of IGFBP7 (ENSG00000163453): − (− = <0.9)
renormalizing the translational profile of RPL22L1 (ENSG00000163584): − (− = <0.9)
